Measured values reported in PubChem BioAssay AID314 (DTP/NCI, 2004).
Where “and” joins values, the source holds several entries; their conditions need not be identical. Equal entries are not always repeated. Toxic doses and inconclusive results are not listed.

Test system: DBA/2 mice, P1534 leukemia ip, survival T/C
Test: NCI In Vivo Anticancer Drug Screen. Data for tumor model P1534 Leukemia (intraperitoneal) in DBA/2 mice
Details: endpoint: mean survival time, higher = longer survival
Description: The antitumor activity of compounds was measured in mice bearing transplantable tumors. Survival or tumor size were measured and the results are expressed as the measurement made in the treated group (T) divided by the measurement made in the vehicle treated control group (C). The tumor model used in this assay is P1534 Leukemia (intraperitoneal) in DBA/2 mice

[1] = dose: 62.5 mg/kg/injection, schedule: Q01DX010 (ip), vehicle: saline
[2] = dose: 125.0 mg/kg/injection, schedule: Q01DX010 (ip), vehicle: saline
[3] = dose: 250.0 mg/kg/injection, schedule: Q01DX010 (ip), vehicle: saline
[4] = dose: 12.5 mg/kg/injection, schedule: Q01DX010 (ip), vehicle: saline
[5] = dose: 100.0 mg/kg/injection, schedule: Q01DX010 (ip), vehicle: saline
[6] = dose: 2.0 mg/kg/injection, schedule: Q01DX010 (ip), vehicle: saline
[7] = dose: 8.0 mg/kg/injection, schedule: Q01DX010 (ip), vehicle: saline
[8] = dose: 15.0 mg/kg/injection, schedule: Q01DX010 (ip), vehicle: saline
[9] = dose: 2.5 mg/kg/injection, schedule: Q01DX010 (ip), vehicle: saline
[10] = dose: 5.0 mg/kg/injection, schedule: Q01DX010 (ip), vehicle: saline
[11] = dose: 10.0 mg/kg/injection, schedule: Q01DX010 (ip), vehicle: saline
[12] = dose: 20.0 mg/kg/injection, schedule: Q01DX010 (ip), vehicle: saline
[13] = dose: 12.5 mg/kg/injection, schedule: Q01DX010 (sc), vehicle: steriod suspending solution
[14] = dose: 16.0 mg/kg/injection, schedule: Q01DX010 (ip), vehicle: saline
[15] = dose: 64.0 mg/kg/injection, schedule: Q01DX010 (ip), vehicle: saline
[16] = dose: 1.25 mg/kg/injection, schedule: Q01DX010 (ip), vehicle: saline
[17] = dose: 37.5 mg/kg/injection, schedule: Q01DX010 (ip), vehicle: saline
[18] = dose: 6.25 mg/kg/injection, schedule: Q01DX010 (ip), vehicle: saline
[19] = dose: 25.0 mg/kg/injection, schedule: Q01DX010 (ip), vehicle: saline
[20] = dose: 31.3 mg/kg/injection, schedule: Q01DX010 (ip), vehicle: saline
[21] = dose: 3.13 mg/kg/injection, schedule: Q01DX010 (ip), vehicle: saline
[22] = dose: 40.0 mg/kg/injection, schedule: Q01DX010 (ip), vehicle: saline
[23] = dose: 0.5 mg/kg/injection, schedule: Q01DX010 (ip), vehicle: saline
[24] = dose: 1.0 mg/kg/injection, schedule: Q01DX010 (ip), vehicle: saline

O=c1[nH]c(=O)n(C2CC(O)C(CO)O2)cc1Br (stereo not drawn)
T/C [1]: 121 % of control | T/C [2]: 107 % of control | T/C [3]: 96 % of control

CSc1ncnc2nc[nH]c12
T/C [4]: 92 % of control | T/C [5]: 100 % of control

CC(CCC(C)OS(C)(=O)=O)OS(C)(=O)=O (stereo not drawn)
T/C [6]: 96 % of control and 103 % of control | T/C (dose: 4.0 mg/kg/injection, schedule: Q01DX010 (ip), vehicle: saline): 100 % of control and 107 % of control | T/C [7]: 96 % of control and 100 % of control

C[C@@H]1CC[C@@]2(NC1)O[C@H]1C[C@H]3[C@@H]4CC=C5C[C@@H](O)CC[C@]5(C)[C@H]4CC[C@]3(C)[C@H]1[C@@H]2C
T/C (dose: 5.0 mg/kg/injection, schedule: Q01DX010 (sc), vehicle: steriod suspending solution): 100 % of control | T/C (dose: 10.0 mg/kg/injection, schedule: Q01DX010 (sc), vehicle: steriod suspending solution): 106 % of control | T/C (dose: 20.0 mg/kg/injection, schedule: Q01DX010 (sc), vehicle: steriod suspending solution): 96 % of control | T/C (dose: 40.0 mg/kg/injection, schedule: Q01DX010 (sc), vehicle: steriod suspending solution): 93 % of control

N#CCSc1ncnc2nc[nH]c12
T/C [8]: 89 % of control | T/C (dose: 30.0 mg/kg/injection, schedule: Q01DX010 (ip), vehicle: saline): 100 % of control | T/C (dose: 60.0 mg/kg/injection, schedule: Q01DX010 (ip), vehicle: saline): 96 % of control and 100 % of control

N=C(N)N
T/C [5]: 100 % of control | T/C (dose: 150.0 mg/kg/injection, schedule: Q01DX010 (ip), vehicle: saline): 100 % of control | T/C (dose: 215.0 mg/kg/injection, schedule: Q01DX010 (ip), vehicle: saline): 100 % of control

COc1ccc2[nH]c3c(C)c4ccncc4c(C)c3c2c1
T/C [9]: 100 % of control | T/C [10]: 93 % of control | T/C [11]: 103 % of control | T/C [12]: 117 % of control

COc1cc2c(c(OC)c1OC)-c1ccc(OC)c(=O)cc1[C@@H](NC(C)=O)CC2
T/C (dose: 0.01 mg/kg/injection, schedule: Q01DX010 (ip), vehicle: saline): 107 % of control | T/C (dose: 0.02 mg/kg/injection, schedule: Q01DX010 (ip), vehicle: saline): 110 % of control | T/C (dose: 0.04 mg/kg/injection, schedule: Q01DX010 (ip), vehicle: saline): 114 % of control | T/C (dose: 0.08 mg/kg/injection, schedule: Q01DX010 (ip), vehicle: saline): 121 % of control

C[C@]12C[C@H](O)[C@H]3[C@@H](CCC4=CC(=O)CC[C@@]43C)[C@@H]1CC[C@@H]2C(=O)CO
T/C [13]: 100 % of control | T/C (dose: 25.0 mg/kg/injection, schedule: Q01DX010 (sc), vehicle: steriod suspending solution): 100 % of control | T/C (dose: 50.0 mg/kg/injection, schedule: Q01DX010 (sc), vehicle: steriod suspending solution): 100 % of control | T/C (dose: 100.0 mg/kg/injection, schedule: Q01DX010 (sc), vehicle: steriod suspending solution): 100 % of control

NCCCCCCNC(=O)CCC(=O)NCCCCCCN
T/C [14]: 95 % of control | T/C [15]: 91 % of control

S=P(N1CCOCC1)(N1CC1)N1CC1
T/C [16]: 100 % of control and 103 % of control | T/C [9]: 92 % of control and 100 % of control

O=c1[nH]c(=O)n(C2CC(O)C(CO)O2)cc1F (stereo not drawn)
T/C [9]: 107 % of control and 111 % of control | T/C [10]: 111 % of control | T/C [12]: 153 % of control | T/C [17]: 169 % of control

CC(=O)O[C@]1(C(C)=O)CC[C@H]2[C@@H]3C[C@H](C)C4=CC(=O)C=C[C@]4(C)[C@@]3(F)[C@@H](O)C[C@@]21C
T/C [13]: 88 % of control

O=C1C=CC2(CCC23C=CC(=O)O3)O1 (stereo not drawn)
T/C [18]: 100 % of control | T/C [4]: 100 % of control | T/C [19]: 106 % of control | T/C (dose: 50.0 mg/kg/injection, schedule: Q01DX010 (ip), vehicle: saline): 86 % of control and 110 % of control

CC(=O)Nc1ccc2nc3ccc(NC(C)=O)cc3[n+](-c3ccccc3)c2c1
T/C [20]: 100 % of control | T/C [1]: 103 % of control | T/C [3]: 88 % of control

NCCCCCCNC(=O)CCCCC(=O)NCCCCCCN
T/C [7]: 100 % of control | T/C [14]: 100 % of control | T/C (dose: 32.0 mg/kg/injection, schedule: Q01DX010 (ip), vehicle: saline): 95 % of control | T/C [15]: 95 % of control

C/C=C1\CN(C=O)C2CC3c4ccccc4NC3C(=O)CC1C2C(=O)OC (stereo not drawn)
T/C [21]: 100 % of control | T/C [18]: 100 % of control | T/C [4]: 100 % of control | T/C [19]: 100 % of control

Nc1nc2n[nH]nc2c(=O)[nH]1
T/C (dose: 3.0 mg/kg/injection, schedule: Q01DX010 (ip), vehicle: alkali diluted with saline): 100 % of control and 115 % of control | T/C (dose: 6.0 mg/kg/injection, schedule: Q01DX010 (ip), vehicle: alkali diluted with saline): 100 % of control and 111 % of control | T/C (dose: 12.0 mg/kg/injection, schedule: Q01DX010 (ip), vehicle: alkali diluted with saline): 107 % of control and 113 % of control

CN(N=O)C(=O)NC(C=O)C(O)C(O)C(O)CO (stereo not drawn)
T/C [22]: 122 % of control | T/C (dose: 90.0 mg/kg/injection, schedule: Q01DX010 (ip), vehicle: saline): 100 % of control | T/C (dose: 135.0 mg/kg/injection, schedule: Q01DX010 (ip), vehicle: saline): 86 % of control

CN(Cc1cnc2nc(N)nc(N)c2n1)c1c(Cl)cc(C(=O)NC(CCC(=O)O)C(=O)O)cc1Cl (stereo not drawn)
T/C [12]: 120 % of control

CCN(CC)CCNc1ccc(C)c2sc3ccccc3c(=O)c12
T/C [11]: 108 % of control | T/C [12]: 108 % of control | T/C [22]: 112 % of control | T/C (dose: 80.0 mg/kg/injection, schedule: Q01DX010 (ip), vehicle: saline): 100 % of control

O=C(OCC1OC(n2cnc3c(=S)nc[nH]c32)C(OC(=O)c2ccccc2)C1OC(=O)c1ccccc1)c1ccccc1 (stereo not drawn)
T/C (dose: 7.8 mg/kg/injection, schedule: Q01DX010 (ip), vehicle: saline): 87 % of control | T/C (dose: 15.6 mg/kg/injection, schedule: Q01DX010 (ip), vehicle: saline): 91 % of control | T/C [20]: 87 % of control | T/C [1]: 100 % of control | T/C [2]: 91 % of control | T/C [3]: 87 % of control

C[C@@H](N)[C@@H](O)c1ccccc1
T/C [21]: 96 % of control

N[C@@H](Cc1ccc(N(CCCl)CCCl)cc1)C(=O)O
T/C [23]: 119 % of control and 123 % of control | T/C (dose: 1.0 mg/kg/injection, schedule: Q01DX010 (ip), vehicle: other): 88 % of control | T/C [24]: 119 % of control and 123 % of control | T/C [6]: 161 % of control

S=P(N1CC1)(N1CC1)N1CC1
T/C (dose: 0.25 mg/kg/injection, schedule: Q01DX010 (ip), vehicle: saline): 91 % of control and 99 % of control | T/C [23]: 94 % of control and 100 % of control | T/C [24]: 95 % of control | T/C [6]: 87 % of control and 89 % of control

Clc1ccc(C(c2ccccc2Cl)C(Cl)Cl)cc1 (stereo not drawn)
T/C (dose: 62.5 mg/kg/injection, schedule: Q01DX010 (sc), vehicle: steriod suspending solution): 100 % of control | T/C (dose: 125.0 mg/kg/injection, schedule: Q01DX010 (sc), vehicle: steriod suspending solution): 100 % of control | T/C (dose: 250.0 mg/kg/injection, schedule: Q01DX010 (sc), vehicle: steriod suspending solution): 96 % of control and 100 % of control | T/C (dose: 500.0 mg/kg/injection, schedule: Q01DX010 (sc), vehicle: steriod suspending solution): 100 % of control

NC(=O)N(CCCl)N=O
T/C [23]: 100 % of control | T/C [24]: 100 % of control | T/C [6]: 86 % of control

COc1cc2c3c(c4ccc(OC)c(OC)c4c2cc1OC)CN1CCC[C@@H]1C3
T/C [9]: 88 % of control | T/C [11]: 92 % of control and 107 % of control | T/C [8]: 96 % of control and 121 % of control

CS(=O)(=O)OCCCl
T/C (dose: 18.8 mg/kg/injection, schedule: Q01DX010 (ip), vehicle: saline): 89 % of control | T/C [17]: 100 % of control | T/C (dose: 75.0 mg/kg/injection, schedule: Q01DX010 (ip), vehicle: saline): 92 % of control

O=C(Nc1ccc(C2=NCCN2)cc1)c1cc(Cl)cc(C(=O)Nc2ccc(C3=NCCN3)cc2)c1
T/C (dose: 140.0 mg/kg/injection, schedule: Q01DX010 (ip), vehicle: saline): 96 % of control and 100 % of control | T/C (dose: 210.0 mg/kg/injection, schedule: Q01DX010 (ip), vehicle: saline): 92 % of control and 107 % of control | T/C (dose: 315.0 mg/kg/injection, schedule: Q01DX010 (ip), vehicle: saline): 96 % of control and 115 % of control | T/C (dose: 473.0 mg/kg/injection, schedule: Q01DX010 (ip), vehicle: saline): 103 % of control and 111 % of control

O=C(O)c1[nH]c(=O)[nH]c(=O)c1F
T/C [16]: 86 % of control
